Assay results from US20210220331A1, “INHIBITORS OF IRES-MEDIATED PROTEIN SYNTHESIS” (The Regents of the University of California, priority 2016, published 2021).
Where two headings read alike, the source gives them in different places.

Legend:
[1] = system: cyclin D1 or c-MYC mRNA association with eIF-4E; test: eIF-4E immunoprecipitation and qRT-PCR of bound RNA; format: cell-based; details: LN229 cells, 50 nM
Method: For immunopurification of eIF4E and bound RNA (21), cells were lysed in buffer containing 50 mM Tris-HCl (pH 7.4), 300 mM NaCl, 0.5% NP-40, 10 mM NaF, 1 mM sodium orthovanidate, 1 mM PMSF, 1.5% aprotinin and SUPERase-IN (ThermoFisher Scientific), 0.025 units/ml, using a Dounce homogenizer at 4° C. Extracts were cleared by centrifugation and immunoprecipitated with eIF4E or control IgG. Beads were washed and obtained RNA was subjected to quantitative RTPCR. For quantitative RT-PCR, extraction of RNA was performed using Trizol (ThermoFisher). Total RNA was then quantified and integrity assessed using an Agilent 2100 Bioanalyzer (Agilent Technology). Total RNA was reverse transcribed with random primers using the RETROscript Kit from ThermoFisher. SYBR Green quantitative PCR was performed in triplicate in 96-well optical plates on an ABI Prism 7000 Sequence Detection System (Life Technologies) according to the manufacturer's instructions. Primer sequences for CCND1, c-MYC and actin are available upon request. […]
(B) Schematic diagrams of the dicistronic constructs used in this study. […] Input and bound fractions were analyzed by immunoblotting using hnRNP A1 antibodies. […] Bound CCND1 or c-MYC RNAs were detected via RT-PCR. […]

[2] = system: cyclin D1 and c-MYC protein; test: Western blot of cyclin D1 and c-MYC protein levels in GBM cell lines; format: cell-based; details: LN229 and SF763 cells, 24 h
Method: Western blot and quantitative RT-PCR analyses were performed as previously described (19). For Western blotting, cells or tissues were lysed in RIPA (lysis) buffer containing protease inhibitor cocktail and phosSTOP phosphatase inhibitor cocktail (Roche) and extracts resolved by SDSPAGE. Proteins were transferred to PVDF membranes and incubated with the indicated antibodies. For IRES reporter assays, the indicated mRNA reporters were cotransfected into cells with pSVβ-galactosidase to normalize for transfection efficiency as described previously (16). Cells were harvested 18 h following transfection and Renilla, firefly and β-galactosidase activities determined using the Dual-Glo Luciferase and β-galactosidase assay systems (Promega).
(B) Schematic diagrams of the dicistronic constructs used in this study. Constructs used are pRF, pRCD1F, which contains the human cyclin D1 IRES, pRmycF, containing the human c-myc IRES, pRp27F, containing the human p27Kip1 IRES and pRECMVF, containing the IRES from encephalomyocarditis virus. (C) Relative Renilla and firefly luciferase activities obtained from LN229 GBM cells transfected with the indicated constructs in the absence or presence of the inhibitor C11. […] Input and bound fractions were analyzed by immunoblotting using hnRNP A1 antibodies. […] Bound CCND1 or c-MYC RNAs were detected via RT-PCR. […]

[3] = system: normal mature human neurons; test: In vitro cytotoxicity in human neurons (trypan blue exclusion); format: cell-based; design: dose or concentration left out as unconfirmed
Method: Within the series B and C analogs, IRES-J008, with a 4-methoxyphenyl substituent in place of the 2,4-dimethoxybenzyl unit, and to a lesser degree, IRES-J009, with an N1-methyluracil unit in place of the dichloromaleimide unit, inhibited cyclin D1 and c-MYC PP242-induced IRES activity. […] The in vitro cytotoxicities of these three analogs relative to C11 in human neurons were also determined. […] The reduced toxicity of the IRES-J007 versus C11 might possible be due to the lack of the quite reactive dichloromaleimide unit present in C11 which is absent in IRES-J007, or may be due to other factors.

Pharmacokinetics in mice = format: in vivo
Method: The pharmacokinetic properties of IRES-J007 in mice were determined. […] IRES-J007 was ˜50% bioavailable following oral delivery with a serum half-life of approximately 30 hours.

c-MYC mRNA = test: Polysome analysis of xenografted LN229 tumors, c-MYC mRNA
Method: (§1) Cells were lysed in buffer containing 100 μg/ml cycloheximide at 4° C. Following removal of mitochondria and nuclei, supernatants were layered onto 15-50% sucrose gradients and centrifuged at 38,000 rpm for 2 h at 4° C. in an SW40 rotor (Beckman Instruments). Gradients were fractionated into 11 1-ml fractions using a density gradient fractionator (Brandel Instruments). The profiles of the gradients were monitored at 260 nm, and RNAs from individual fractions were pooled into a nonribosomal/monosomal pool and a polysomal pool. These RNAs (100 ng) were used in real time quantitative RT-PCR analysis for the indicated transcripts.
(§2) Tumor extracts were subjected to sucrose density gradient centrifugation, fractionated and pooled into nonribosomal, monosomal fraction (N, white bars) and a polysomal fraction (P, black bars). Purified RNAs were used in real-time qRT-PCR analysis to determine the distributions of cyclin D1, c-MYC and actin mRNAs across the gradients. […] Means and +S.D. values are shown for quadruplicate RT-PCR measurements. *, P<0.05.
(§3) Polysomes were separated via sucrose density gradient sedimentation and fractionated into heavy polysomal and nonribosomal/monosomal fractions.

actin mRNA = test: Polysome analysis of xenografted LN229 tumors, actin mRNA; details: monotherapy
Method: as §1, §2, §3

cyclin D1 mRNA = test: Polysome analysis of xenografted LN229 tumors, cyclin D1 mRNA
Method: as §1, §2, §3

COc1ccc(CN2C(=O)C(Cl)=C(Cl)C2=O)c(OC)c1 [Compound C11, reference compound]
cyclin D1 or c-MYC mRNA association with eIF-4E [1]: did not affect
cyclin D1 and c-MYC protein levels [2]: markedly reduced

COc1ccc(CN2C(=O)c3ccccc3C2=O)c(OC)c1 [IRES-J007, 2-((2,4-Dimethoxyphenyl)methyl)isoindoline-1,3-dione]
cytotoxic effects on normal neurons [3]: no significant cytotoxic effects
AUC (Pharmacokinetics in mice; mouse, plasma, 20 mg/kg, PO): 759 µg·h/mL
Cmax (Pharmacokinetics in mice; mouse, plasma, 20 mg/kg, PO): 17.2 µg/mL
Tmax (Pharmacokinetics in mice; mouse, plasma, 20 mg/kg, PO): 7.2 h
half-life (Pharmacokinetics in mice; mouse, plasma, 20 mg/kg, PO, read-out: Half-life (T1/2 K10) (converted)): 27.4 h
AUC (Pharmacokinetics in mice; mouse, plasma, IV): 1290 µg·h/mL
Cmax (Pharmacokinetics in mice; mouse, plasma, IV): 284 µg/mL
Tmax (Pharmacokinetics in mice; mouse, plasma, IV): 0.05 h
clearance (Pharmacokinetics in mice; mouse, plasma, IV): 152 mL/min/kg
half-life (Pharmacokinetics in mice; mouse, plasma, IV, read-out: Half-life (T1/2 b) (converted)): 13.6 h
bioavailability (Pharmacokinetics in mice; mouse, plasma, iv, read-out: Relative Bioavailability): 100%
bioavailability (Pharmacokinetics in mice; mouse, plasma, po, 20 mg/kg, PO, calculated based on AUC, read-out: Relative Bioavailability): 40.1%
bioavailability (Pharmacokinetics in mice; mouse, plasma, po, 20 mg/kg, oral gavage 20 mg/kg, read-out: bioavailability following oral delivery): ~50%
half-life (Pharmacokinetics in mice; mouse, serum, oral delivery 20 mg/kg, read-out: serum half-life (converted)): ~30 h
trough levels (Pharmacokinetics in mice; single 20 mg/kg dose): exceeded concentrations expected to block hnRNP A1 IRES activity
c-MYC mRNA translational efficiency (c-MYC mRNA; IRES-J007 monotherapy): significant reduction
c-MYC mRNA polysomal (c-MYC mRNA; PP242 and IRES-J007 cotherapy): 3%
actin mRNA polysomal distribution / translational efficiency (actin mRNA): unaffected
cyclin D1 mRNA translational efficiency (cyclin D1 mRNA; IRES-J007 monotherapy): significant reduction
CCND1 mRNA polysomal (cyclin D1 mRNA; PP242 and IRES-J007 cotherapy): 5%
